Earlier results in patent US20040037903A1, “Phytonutrient formula for the relief of chronic pain resulting from inflammation” (priority 2003, published 2004).

Assays:
5-HETE [1] = details: in vivo in rats, curcumin added to the diet
TNF-α = details: human cell lines
PGE2 = details: in vivo in rats, curcumin added to the diet
IL-1B = details: human cell lines
IL-8 = details: human cell lines
[2] = animal study, similar active dose
IL-6 = details: incubation of mouse macrophages with resveratrol
5-HETE [3] = details: rat polymorphonuclear leukocytes

SMILES: COc1cc(/C=C/C(=O)CC(=O)/C=C/c2ccc(O)c(OC)c2)ccc1O [curcumin, diferuloyl methane]
- reduction of 5-HETE (5-HETE [1]): 80%
- inhibition of cytokine TNF-α (TNF-α): at least 50%
- reduction of PGE2 (PGE2): 38%
- inhibition of cytokine IL-1B (IL-1B): at least 50%
- inhibition of cytokine IL-8 (IL-8): at least 50%

SMILES: CCCCC1C(=O)N(c2ccccc2)N(c2ccccc2)C1=O [phenylbutazone]
- ulcerogen index [2]: 1.7

SMILES: Oc1ccc(/C=C/c2cc(O)cc(O)c2)cc1 [resveratrol, 3,5,4′-trihydroxy-trans-stilbene]
- inhibition of the production of IL-6 (IL-6): 34%
- inhibition of 5-HETE (5-HETE [3]): greater than 70%
